# Key:
# [1] = system: ovariectomized (OVX) rats; test: OVX rat study: body weight, uterine weight, body composition by DXA, organ findings; type: in vivo, Wistar rats; settings: 12 weeks; for decrease in fat mass (body composition by DXA): higher dosages of lycopene
# Method: (§1) A total of 264 Wistar female rats, ˜6 months old, were supplied by the Animal House at King Fahd Medical Research Center (KFMRC), KAU. Rats were housed in individual cages and maintained at 22° C. with a 12-h light/dark cycle. During the study period, rats were given standard rodent chow diet ad libitum (commercial rat cubes containing approximately 18% protein, 3% fat, 77% carbohydrate, and 2% of an inorganic-salt mixture with a vitamin supplement by weight, supplied by Grain Silos and Flour Mills Organization, Jeddah, Saudi Arabia) and water until the onset of intervention. Prior to surgery, rats were anesthetized with ketamine [(10% ketamine hydrochloride (80 mg/kg body weight), Cayman Chemical, Michigan, USA] and xylazine [(2% xylazine hydrochloride, 10 mg/kg body weight), Sigma-Aldrich Co., St. Louis, USA]. A single longitudinal skin incision was made on the dorsal midline at the level of the kidneys and both ovaries were ligated and removed to produce an ovariectomy in all OVX group animals. A SHAM-operated group, acting as a negative control for the effect of ovariectomy on bone parameters, underwent bilateral laparotomy, during which the ovaries were exposed but remained intact. […] The lycopene-supplemented groups were given lycopene (15, 30 and 45 mg/kg body weight per day) dissolved in corn oil by daily intra-gastric administration for the experimental period of 12 weeks. The SHAM, OVX and ALN control groups were given the same volume of corn oil without lycopene treatment. […] A 12-week randomized placebo-controlled study in order to examine the protective effects of lycopene supplementation on bone mass and fragility in OVX rats was concluded. Prior to surgery, body weight and bone mineral density (BMD) were obtained for all animals. Rats were randomized using a computer-generated randomization code into one of six groups: (1) sham-operated (SHAM; n=44); (2) ovariectomized control (OVX; n=44); (3) OVX lycopene-supplemented (15 mg/kg body weight per day) (n=44); (4) OVX lycopene-supplemented (30 mg/kg body weight per day) (n=44); (5) OVX lycopene-supplemented (45 mg/kg body weight per day) (n=44) and (6) OVX alendronate-treated (ALN) [2.0 μg/kg body weight per day subcutaneously (sc)] (n=44). Alendronate is an anti-resorptive agent for the treatment of osteoporosis and was used as a positive therapy control. […] All OVX groups were pair-fed with the SHAM group throughout the study to avoid the possible effects of ovariectomy-induced over-consumption and subsequent excessive weight gain. Treatment started 1 week after the surgery: this period of rest allowed the rats to recover from the stress associated with the surgery. In addition, after surgery, rats were administered Diclofenac sodium injection (20 mg/Kg body weight) to reduce the pain associated with the surgery. Rats were weighed and examined daily. Blood and urine samples were collected at baseline, during, and at the end of treatment for measurement of various BTMs and other analytes. In vivo dual energy x-ray absorptiometry (DXA) measurements were made for the bone mineral content (BMC) and BMD of the whole body, lumbar spine (L1-L4), and the right humerus, together with body composition at 12 weeks of treatment. One day following the post-test DXA assessments (at 12 weeks, 16 rats in each group), animals were euthanized by decapitation and right and left femurs were extracted for further biomechanical and histomorphometric analyses. Blood and urine samples were collected from all experimental groups to measure biochemical analytes and BTMs at baseline and 4, 8, and 12 weeks of treatment. Peripheral Quantitative CT (pQCT) scans were made of the proximal tibia metaphysis and the diaphysis. In vivo micro-computed tomographic (μCT) scans of the proximal tibia were obtained during the treatment period to monitor changes in bone mass and microarchitecture. […]
# [2] = OVX rat study: serum and liver lycopene by HPLC; type: in vivo, Wistar rats
# Method: A total of 264 Wistar female rats, ˜6 months old, were supplied by the Animal House at King Fahd Medical Research Center (KFMRC), KAU. Rats were housed in individual cages and maintained at 22° C. with a 12-h light/dark cycle. During the study period, rats were given standard rodent chow diet ad libitum (commercial rat cubes containing approximately 18% protein, 3% fat, 77% carbohydrate, and 2% of an inorganic-salt mixture with a vitamin supplement by weight, supplied by Grain Silos and Flour Mills Organization, Jeddah, Saudi Arabia) and water until the onset of intervention. Prior to surgery, rats were anesthetized with ketamine [(10% ketamine hydrochloride (80 mg/kg body weight), Cayman Chemical, Michigan, USA] and xylazine [(2% xylazine hydrochloride, 10 mg/kg body weight), Sigma-Aldrich Co., St. Louis, USA]. A single longitudinal skin incision was made on the dorsal midline at the level of the kidneys and both ovaries were ligated and removed to produce an ovariectomy in all OVX group animals. A SHAM-operated group, acting as a negative control for the effect of ovariectomy on bone parameters, underwent bilateral laparotomy, during which the ovaries were exposed but remained intact. […] The lycopene-supplemented groups were given lycopene (15, 30 and 45 mg/kg body weight per day) dissolved in corn oil by daily intra-gastric administration for the experimental period of 12 weeks. The SHAM, OVX and ALN control groups were given the same volume of corn oil without lycopene treatment. […] A 12-week randomized placebo-controlled study in order to examine the protective effects of lycopene supplementation on bone mass and fragility in OVX rats was concluded. Prior to surgery, body weight and bone mineral density (BMD) were obtained for all animals. […] Peripheral Quantitative CT (pQCT) scans were made of the proximal tibia metaphysis and the diaphysis. […]
# [3] = system: ovariectomized (OVX) rats; test: OVX rat study: serum minerals, enzymes and hormones; type: in vivo, Wistar rats
# Method: as §1, with “In addition, after surgery, rats were administered Diclofenac sodium injection (20 mg/Kg body weight) to reduce the pain associated with the surgery. Rats were weighed and examined daily. Blood and urine samples were collected at baseline, during, and at the end of treatment for measurement of various BTMs and other analytes. In vivo dual energy x-ray absorptiometry (DXA) measurements were made for the bone mineral content (BMC) and BMD of the whole body, lumbar spine (L1-L4), and the right humerus, together with body composition at 12 weeks of treatment. One day following the post-test DXA assessments (at 12 weeks, 16 rats in each group), animals were euthanized by decapitation and right and left femurs were extracted for further biomechanical and histomorphometric analyses. Blood and urine samples were collected from all experimental groups to measure biochemical analytes and BTMs at baseline and 4, 8, and 12 weeks of treatment.” left out, “diaphysis.” for “diaphysis. In vivo micro-computed tomographic (μCT) scans of the proximal tibia were obtained during the treatment period to monitor changes in bone mass and microarchitecture.”
# [4] = system: ovariectomized (OVX) rats; test: OVX rat study: plasma GPx, SOD, CAT activities and urinary 8-OHdG; type: in vivo, Wistar rats
# Method: Prior to surgery, rats were anesthetized with ketamine [(10% ketamine hydrochloride (80 mg/kg body weight), Cayman Chemical, Michigan, USA] and xylazine [(2% xylazine hydrochloride, 10 mg/kg body weight), Sigma-Aldrich Co., St. Louis, USA]. A single longitudinal skin incision was made on the dorsal midline at the level of the kidneys and both ovaries were ligated and removed to produce an ovariectomy in all OVX group animals. A SHAM-operated group, acting as a negative control for the effect of ovariectomy on bone parameters, underwent bilateral laparotomy, during which the ovaries were exposed but remained intact. […] The lycopene-supplemented groups were given lycopene (15, 30 and 45 mg/kg body weight per day) dissolved in corn oil by daily intra-gastric administration for the experimental period of 12 weeks. The SHAM, OVX and ALN control groups were given the same volume of corn oil without lycopene treatment. […] Prior to surgery, body weight and bone mineral density (BMD) were obtained for all animals. […] Alendronate is an anti-resorptive agent for the treatment of osteoporosis and was used as a positive therapy control. […] All OVX groups were pair-fed with the SHAM group throughout the study to avoid the possible effects of ovariectomy-induced over-consumption and subsequent excessive weight gain. Treatment started 1 week after the surgery: this period of rest allowed the rats to recover from the stress associated with the surgery. In addition, after surgery, rats were administered Diclofenac sodium injection (20 mg/Kg body weight) to reduce the pain associated with the surgery. Rats were weighed and examined daily. Blood and urine samples were collected at baseline, during, and at the end of treatment for measurement of various BTMs and other analytes. […] Blood and urine samples were collected from all experimental groups to measure biochemical analytes and BTMs at baseline and 4, 8, and 12 weeks of treatment.
# [5] = system: ovariectomized (OVX) rats; test: OVX rat study: biochemical bone turnover markers; type: in vivo, Wistar rats
# Method: as §1, with “In addition, after surgery, rats were administered Diclofenac sodium injection (20 mg/Kg body weight) to reduce the pain associated with the surgery. Rats were weighed and examined daily. Blood and urine samples were collected at baseline, during, and at the end of treatment for measurement of various BTMs and other analytes. In vivo dual energy x-ray absorptiometry (DXA) measurements were made for the bone mineral content (BMC) and BMD of the whole body, lumbar spine (L1-L4), and the right humerus, together with body composition at 12 weeks of treatment. One day following the post-test DXA assessments (at 12 weeks, 16 rats in each group), animals were euthanized by decapitation and right and left femurs were extracted for further biomechanical and histomorphometric analyses. Blood and urine samples were collected from all experimental groups to measure biochemical analytes and BTMs at baseline and 4, 8, and 12 weeks of treatment.” left out, “diaphysis.” for “diaphysis. In vivo micro-computed tomographic (μCT) scans of the proximal tibia were obtained during the treatment period to monitor changes in bone mass and microarchitecture.”
# [6] = system: ovariectomized (OVX) rats; test: OVX rat study: in vivo DXA densitometry of lumbar spine and humerus; set-up: species or system Wistar rats; settings: 12 weeks, versus OVX control
# Method: (§2) A total of 264 Wistar female rats, ˜6 months old, were supplied by the Animal House at King Fahd Medical Research Center (KFMRC), KAU. Rats were housed in individual cages and maintained at 22° C. with a 12-h light/dark cycle. During the study period, rats were given standard rodent chow diet ad libitum (commercial rat cubes containing approximately 18% protein, 3% fat, 77% carbohydrate, and 2% of an inorganic-salt mixture with a vitamin supplement by weight, supplied by Grain Silos and Flour Mills Organization, Jeddah, Saudi Arabia) and water until the onset of intervention. Prior to surgery, rats were anesthetized with ketamine [(10% ketamine hydrochloride (80 mg/kg body weight), Cayman Chemical, Michigan, USA] and xylazine [(2% xylazine hydrochloride, 10 mg/kg body weight), Sigma-Aldrich Co., St. Louis, USA]. A single longitudinal skin incision was made on the dorsal midline at the level of the kidneys and both ovaries were ligated and removed to produce an ovariectomy in all OVX group animals. A SHAM-operated group, acting as a negative control for the effect of ovariectomy on bone parameters, underwent bilateral laparotomy, during which the ovaries were exposed but remained intact. […] Peripheral Quantitative CT (pQCT) scans were made of the proximal tibia metaphysis and the diaphysis. […]
# [7] = system: ovariectomized (OVX) rats; test: OVX rat study: in vivo pQCT densitometry of tibia metaphysis; set-up: species or system Wistar rats; settings: 12 weeks, versus OVX control, P<0.001
# Method: as §2
# [8] = system: ovariectomized (OVX) rats; test: OVX rat study: ex vivo pQCT and biomechanical testing of lumbar spine and femur; type: in vivo, Wistar rats; settings: 12 weeks
# Method: as §1, with “One day following the post-test DXA assessments (at 12 weeks, 16 rats in each group), animals were euthanized by decapitation and right and left femurs were extracted for further biomechanical and histomorphometric analyses. Blood and urine samples were collected from all experimental groups to measure biochemical analytes and BTMs at baseline and 4, 8, and 12 weeks of treatment.” left out, “diaphysis.” for “diaphysis. In vivo micro-computed tomographic (μCT) scans of the proximal tibia were obtained during the treatment period to monitor changes in bone mass and microarchitecture.”
# [9] = system: ovariectomized (OVX) rats; test: OVX rat study: ex vivo μCT analysis of tibial metaphysis and femur diaphysis; type: in vivo, Wistar rats
# Method: as §1
# [10] = 12 weeks, lycopene, ALN 2.0 μg/kg/day, P<0.001
smiles,measurement,setting,value
CC(C)=CCC/C(C)=C/C=C/C(C)=C/C=C/C(C)=C/C=C/C=C(C)/C=C/C=C(C)/C=C/C=C(\C)CCC=C(C)C [lycopene],decrease in fat mass (body composition by DXA),"[1]; OVX rats, first value (presumably 30 mg/kg/day)",8.9%
same,decrease in fat mass (body composition by DXA),"[1]; OVX rats, second value (presumably 45 mg/kg/day)",16.4%
same,"final body weight, body weight gain, or food intake","[1]; OVX rats, lycopene 15, 30, 45 mg/kg/day oral",did not significantly influence
same,uterine weight compared to OVX alone,"[1]; OVX rats, lycopene 30 and 45 mg/kg body weight per day",significantly increased
same,OVX-induced body weight gain and fat accumulation,"[1]; OVX rats, lycopene treatment",prevented
same,"degeneration or hypertrophy of internal organs, including muscle and bone",[1]; lycopene-treated OVX rats,No degeneration or hypertrophy
same,Liver lycopene levels versus 15 mg/kg per day group,[2]; 30 and 45 mg/kg body weight per day groups,significantly higher
same,concentration at 12 weeks,"[2]; female, Wistar, rat, serum, 45 mg/kg/day, OVX rats, at 12 weeks, 45 mg/kg body weight per day oral, read-out: Serum lycopene levels",71.5 ± 4.65 nM
same,lycopene in serum and livers,"[2]; rats treated with lycopene, dose-dependent fashion",detected
same,serum E2,"[3]; OVX lycopene-treated groups, dose-dependent, P<0.001",significantly increased
same,elevated serum FSH and LH levels,"[3]; OVX rats, lycopene treatment",attenuated
same,serum PTH values versus other groups,"[3]; OVX rats, lycopene 45 mg/kg/day, ALN 2.0 μg/kg/day sc, P<0.001",significantly higher
same,"plasma GPx, CAT and SOD activities",[4]; after lycopene treatment,increased
same,increase in plasma GPx activity compared to the OVX control,"[4]; lycopene 15-45 mg/kg/day, P<0.001",30.6-57.2%
same,urinary 8-OHdG levels,"[4]; lycopene, dose-dependent manner, P<0.001",significantly decreased
same,s-CTX and u-DPD levels compared to OVX control,"[5]; lycopene 30 and 45 mg/kg per day, P<0.001",significantly decreased
same,s-OC and s-PINP levels compared with OVX control,"[5]; lycopene 30 or 45 mg/kg per day, weeks 8 and 12, P<0.001",significant decreases
same,"OVX-induced bone loss (BMC and BMD, lumbar spine and humerus, DXA)",[6],significantly prevented
same,"OVX-induced bone loss (total and trabecular BMD, proximal tibia, pQCT)",[7],significantly prevented
same,OVX-induced decrease in cortical thickness,"[8]; lycopene particularly 45 mg/kg/day, alendronate 2.0 μg/kg/day",prevented the decrease
same,lumbar spine biomechanical / bone strength parameters,"[8]; lycopene particularly 30 and 45 mg/kg/day, ALN 2.0 μg/kg/day, P<0.05",improved
same,effects of OVX on bone strength parameters in the femur diaphysis,"[8]; lycopene, values comparable to SHAM",prevented the negative effects
same,"decrease in Tb.Sp, tibia metaphysis (μCT), compared with OVX group",[9]; [10],46.8%
same,"increase in BV/TV, tibia metaphysis (μCT), compared with OVX group",[9]; [10],123.9%
same,"increase in Tb.N, tibia metaphysis (μCT), compared with OVX group",[9]; [10],52.8%
same,"increase in Tb.Th, tibia metaphysis (μCT), compared with OVX group","[9]; 12 weeks, lycopene, P<0.001",78.4%
same,relative bone volume (BV/TV) of the femur diaphysis (μCT),"[9]; OVX rats, 12 weeks",nor lycopene or ALN treatment had significant effects
same,femoral cortical values for Ct.Th and Ct.Po (μCT),"[9]; lycopene 30 and 45 mg/kg/day, ALN, versus SHAM and OVX groups",improved

# Reference: patent US9956181B2, “Composition of nanoformulated lycopene and method of using the composition” (priority 2015, dated 2018)
